Test results from PubChem BioAssay AID1963865 (Molecular Pharmacology Branch, DTP, NCI, 2024).

Tested on: KRAS PDC multicell spheroid viability
Experiment: Anticancer human tumor 825966-067-R-J1-PDC patient-derived colon carcinoma cell line growth inhibition [KRAS2]
Conditions: for IC50: curve of first compound; for viability, T/C: stronger effect = lower value
Outline: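 Combination screen of spheroid viability in tumor-cell co-cultures with endothelial (HUVEC) and mesenchymal stem cell stroma. Each agent was tested in half-log dilutions, topping at clinical Cmax or at 10 microM without a known Cmax.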

[1] = second compound 0.1 µM, first compound 0.0316 µM
[2] = second compound 0.1 µM, first compound 0.1 µM
[3] = second compound 0.1 µM, first compound 0.316 µM
[4] = second compound 0.1 µM, first compound 1 µM
[5] = second compound 0.1 µM, first compound 3.16 µM
[6] = second compound 0.316 µM, first compound 0.0316 µM
[7] = second compound 0.316 µM, first compound 0.1 µM
[8] = second compound 0.316 µM, first compound 0.316 µM
[9] = second compound 0.316 µM, first compound 1 µM
[10] = second compound 0.316 µM, first compound 3.16 µM
[11] = second compound 1 µM, first compound 0.0316 µM
[12] = second compound 1 µM, first compound 0.1 µM
[13] = second compound 1 µM, first compound 0.316 µM
[14] = second compound 1 µM, first compound 1 µM
[15] = second compound 1 µM, first compound 3.16 µM
[16] = second compound 3.16 µM, first compound 0.0316 µM
[17] = second compound 3.16 µM, first compound 0.1 µM
[18] = second compound 3.16 µM, first compound 0.316 µM
[19] = second compound 3.16 µM, first compound 1 µM
[20] = second compound 3.16 µM, first compound 3.16 µM
[21] = second compound 10 µM, first compound 0.0316 µM
[22] = second compound 10 µM, first compound 0.1 µM
[23] = second compound 10 µM, first compound 0.316 µM
[24] = second compound 10 µM, first compound 1 µM
[25] = second compound 10 µM, first compound 3.16 µM
[26] = second compound 0.1 µM, first compound 0.0001 µM
[27] = second compound 0.1 µM, first compound 0.000316 µM
[28] = second compound 0.1 µM, first compound 0.001 µM
[29] = second compound 0.1 µM, first compound 0.00316 µM
[30] = second compound 0.1 µM, first compound 0.01 µM
[31] = second compound 0.316 µM, first compound 0.0001 µM
[32] = second compound 0.316 µM, first compound 0.000316 µM
[33] = second compound 0.316 µM, first compound 0.001 µM
[34] = second compound 0.316 µM, first compound 0.00316 µM
[35] = second compound 0.316 µM, first compound 0.01 µM
[36] = second compound 1 µM, first compound 0.0001 µM
[37] = second compound 1 µM, first compound 0.000316 µM
[38] = second compound 1 µM, first compound 0.001 µM
[39] = second compound 1 µM, first compound 0.00316 µM
[40] = second compound 1 µM, first compound 0.01 µM
[41] = second compound 3.16 µM, first compound 0.0001 µM
[42] = second compound 3.16 µM, first compound 0.000316 µM
[43] = second compound 3.16 µM, first compound 0.001 µM
[44] = second compound 3.16 µM, first compound 0.00316 µM
[45] = second compound 3.16 µM, first compound 0.01 µM
[46] = second compound 10 µM, first compound 0.0001 µM
[47] = second compound 10 µM, first compound 0.000316 µM
[48] = second compound 10 µM, first compound 0.001 µM
[49] = second compound 10 µM, first compound 0.00316 µM
[50] = second compound 10 µM, first compound 0.01 µM
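Further: spheroids exposed to compounds for 7 days.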
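Wherever viability, T/C is given: 100% = DMSO vehicle control viability.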

## CCNC(=O)CC1N=C(c2ccc(Cl)cc2)c2cc(OC)ccc2-n2c(C)nnc21 (stereo not given) + CC1OCC2(CCN(c3cnc(Sc4ccnc(N)c4Cl)c(N)n3)CC2)C1N
Second compound 0.1 µM
  IC50: > 10000 nM
Second compound 0.316 µM
  IC50: > 10000 nM
Second compound 1 µM
  IC50: > 10000 nM
Second compound 3.16 µM
  IC50: > 10000 nM
Second compound 10 µM
  IC50: > 10000 nM
[1]
  viability, T/C: 104%
[2]
  viability, T/C: 107%
[3]
  viability, T/C: 122%
[4]
  viability, T/C: 82.7%
[5]
  viability, T/C: 89.9%
Second compound 0.1 µM, first compound 10 µM
  viability, T/C: 84.9%
[6]
  viability, T/C: 101%
[7]
  viability, T/C: 123%
[8]
  viability, T/C: 119%
[9]
  viability, T/C: 90.3%
[10]
  viability, T/C: 91.2%
Second compound 0.316 µM, first compound 10 µM
  viability, T/C: 80.1%
[11]
  viability, T/C: 97.5%
[12]
  viability, T/C: 139%
[13]
  viability, T/C: 138%
[14]
  viability, T/C: 108%
[15]
  viability, T/C: 107%
Second compound 1 µM, first compound 10 µM
  viability, T/C: 89.6%
[16]
  viability, T/C: 97.6%
[17]
  viability, T/C: 118%
[18]
  viability, T/C: 137%
[19]
  viability, T/C: 103%
[20]
  viability, T/C: 84.2%
Second compound 3.16 µM, first compound 10 µM
  viability, T/C: 71.3%
[21]
  viability, T/C: 85.2%
[22]
  viability, T/C: 91.5%
[23]
  viability, T/C: 93.5%
[24]
  viability, T/C: 87.6%
[25]
  viability, T/C: 67.6%
Second compound 10 µM, first compound 10 µM
  viability, T/C: 71.8%

## CC(=O)Nc1cccc(-n2c(=O)n(C3CC3)c(=O)c3c(Nc4ccc(I)cc4F)n(C)c(=O)c(C)c32)c1 + COc1cc2nc(C)nc(NC(C)c3cc(N)cc(C(F)(F)F)c3)c2cc1OC1CCOC1
Second compound 0.1 µM
  IC50: > 31.6 nM
Second compound 0.316 µM
  IC50: 29.6 nM
Second compound 1 µM
  IC50: 18.5 nM
Second compound 3.16 µM
  IC50: 3.25 nM
Second compound 10 µM
  IC50: < 0.1 nM
[26]
  viability, T/C: 95.3%
[27]
  viability, T/C: 114%
[28]
  viability, T/C: 144%
[29]
  viability, T/C: 128%
[30]
  viability, T/C: 64%
[1]
  viability, T/C: 84.8%
[31]
  viability, T/C: 95%
[32]
  viability, T/C: 126%
[33]
  viability, T/C: 128%
[34]
  viability, T/C: 110%
[35]
  viability, T/C: 94.2%
[6]
  viability, T/C: 47.3%
[36]
  viability, T/C: 98.5%
[37]
  viability, T/C: 103%
[38]
  viability, T/C: 113%
[39]
  viability, T/C: 114%
[40]
  viability, T/C: 72.3%
[11]
  viability, T/C: 30.6%
[41]
  viability, T/C: 109%
[42]
  viability, T/C: 109%
[43]
  viability, T/C: 128%
[44]
  viability, T/C: 50.9%
[45]
  viability, T/C: 18.8%
[16]
  viability, T/C: 5.41%
[46]
  viability, T/C: 2.53%
[47]
  viability, T/C: 2.62%
[48]
  viability, T/C: 0.97%
[49]
  viability, T/C: 0.39%
[50]
  viability, T/C: 0.39%
[21]
  viability, T/C: 0.27%

## CC(=O)Nc1cccc(-n2c(=O)n(C3CC3)c(=O)c3c(Nc4ccc(I)cc4F)n(C)c(=O)c(C)c32)c1 + C=CC(=O)N1CCN(c2nc(=O)n(-c3c(C)ccnc3C(C)C)c3nc(-c4c(O)cccc4F)c(F)cc23)C(C)C1
Second compound 0.1 µM
  IC50: 17 nM
Second compound 0.316 µM
  IC50: 22.8 nM
Second compound 1 µM
  IC50: > 31.6 nM
Second compound 3.16 µM
  IC50: 27.5 nM
Second compound 10 µM
  IC50: 14.1 nM
[26]
  viability, T/C: 91.9%
[27]
  viability, T/C: 84.9%
[28]
  viability, T/C: 99.5%
[29]
  viability, T/C: 128%
[30]
  viability, T/C: 72.5%
[1]
  viability, T/C: 23.7%
[31]
  viability, T/C: 84.8%
[32]
  viability, T/C: 82.7%
[33]
  viability, T/C: 111%
[34]
  viability, T/C: 129%
[35]
  viability, T/C: 95.6%
[6]
  viability, T/C: 31.8%
[36]
  viability, T/C: 92.2%
[37]
  viability, T/C: 89.4%
[38]
  viability, T/C: 99.8%
[39]
  viability, T/C: 114%
[40]
  viability, T/C: 102%
[11]
  viability, T/C: 52.5%
[41]
  viability, T/C: 72.2%
[42]
  viability, T/C: 97.7%
[43]
  viability, T/C: 95.4%
[44]
  viability, T/C: 97.3%
[45]
  viability, T/C: 80.2%
[16]
  viability, T/C: 45.9%
[46]
  viability, T/C: 81.3%
[47]
  viability, T/C: 89.5%
[48]
  viability, T/C: 77.3%
[49]
  viability, T/C: 101%
[50]
  viability, T/C: 55.2%
[21]
  viability, T/C: 37.6%

## CC(=O)OC12COC1CC(O)C1(C)C(=O)C(O)C3=C(C)C(OC(=O)C(O)C(NC(=O)OC(C)(C)C)c4ccccc4)CC(O)(C(OC(=O)c4ccccc4)C21)C3(C)C (stereo not given) + C=CC(=O)N1CCN(c2nc(=O)n(-c3c(C)ccnc3C(C)C)c3nc(-c4c(O)cccc4F)c(F)cc23)C(C)C1
Second compound 0.1 µM
  IC50: < 10 nM
Second compound 0.316 µM
  IC50: < 10 nM
Second compound 1 µM
  IC50: < 10 nM
Second compound 3.16 µM
  IC50: < 10 nM
Second compound 10 µM
  IC50: < 10 nM
[30]
  viability, T/C: 33.9%
[1]
  viability, T/C: 30.6%
[2]
  viability, T/C: 20.5%
[3]
  viability, T/C: 20.9%
[4]
  viability, T/C: 22.8%
[5]
  viability, T/C: 31.5%
[35]
  viability, T/C: 26.8%
[6]
  viability, T/C: 24%
[7]
  viability, T/C: 24.6%
[8]
  viability, T/C: 26%
[9]
  viability, T/C: 28.5%
[10]
  viability, T/C: 29.7%
[40]
  viability, T/C: 27.9%
[11]
  viability, T/C: 34.3%
[12]
  viability, T/C: 25.9%
[13]
  viability, T/C: 23.9%
[14]
  viability, T/C: 23.1%
[15]
  viability, T/C: 22.5%
[45]
  viability, T/C: 38.3%
[16]
  viability, T/C: 27.3%
[17]
  viability, T/C: 25.5%
[18]
  viability, T/C: 23.2%
[19]
  viability, T/C: 26.9%
[20]
  viability, T/C: 39.2%
[50]
  viability, T/C: 30.8%
[21]
  viability, T/C: 34.9%
[22]
  viability, T/C: 24.1%
[23]
  viability, T/C: 26.7%
[24]
  viability, T/C: 17.1%
[25]
  viability, T/C: 24.5%
